Source: PubChem BioAssay (NCI)
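96-well plates; 48 h exposure; 5 concentrations. Endpoints by linear interpolation between flanking doses. Not reached: highest tested concentration assigned. TGI is the concentration that stops growth completely.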

What was measured:
Assay in all cases: DTP human tumour cell line panel, 48 h
786-0 renal = tested on: 786-0 renal
DU-145 prostate = tested on: DU-145 prostate
HCC-2998 colon = tested on: HCC-2998 colon
HCT-15 colon = tested on: HCT-15 colon
HOP-62 NSCLC = tested on: HOP-62 NSCLC
HS 578T breast = tested on: HS 578T breast
HT29 colon = tested on: HT29 colon
K-562 leukemia = tested on: K-562 leukemia
KM12 colon = tested on: KM12 colon
LOX IMVI melanoma = tested on: LOX IMVI melanoma
M14 melanoma = tested on: M14 melanoma
MOLT-4 leukemia = tested on: MOLT-4 leukemia
OVCAR-5 ovarian = tested on: OVCAR-5 ovarian
PC-3 prostate = tested on: PC-3 prostate
SF-295 CNS = tested on: SF-295 CNS
SK-MEL-5 melanoma = tested on: SK-MEL-5 melanoma
SK-OV-3 ovarian = tested on: SK-OV-3 ovarian
SNB-19 CNS = tested on: SNB-19 CNS
TK-10 renal = tested on: TK-10 renal
XF 498 CNS = tested on: XF 498 CNS

SMILES | TGI (786-0 renal) | TGI (DU-145 prostate) | TGI (HCC-2998 colon) | TGI (HCT-15 colon) | TGI (HOP-62 NSCLC) | TGI (HS 578T breast) | TGI (HT29 colon) | TGI (K-562 leukemia) | TGI (KM12 colon) | TGI (LOX IMVI melanoma) | TGI (M14 melanoma) | TGI (MOLT-4 leukemia) | TGI (OVCAR-5 ovarian) | TGI (PC-3 prostate) | TGI (SF-295 CNS) | TGI (SK-MEL-5 melanoma) | TGI (SK-OV-3 ovarian) | TGI (SNB-19 CNS) | TGI (TK-10 renal) | TGI (XF 498 CNS)
c1ccc2c(c1)SCCC2NC1=NCCO1 (stereo not given) | > 100 µM | > 100 µM | > 100 µM | > 100 µM | > 100 µM | > 100 µM | > 100 µM | > 100 µM | > 100 µM | > 100 µM | > 100 µM | > 100 µM | > 100 µM | > 100 µM | > 100 µM | > 100 µM | > 100 µM | > 100 µM | > 100 µM | 
C=CN1C(=O)[C@H](Oc2ccccc2)[C@@H]1c1ccccc1 | 33.1 µM |  | > 100 µM | > 100 µM | 92.2 µM |  | 69.4 µM | > 100 µM | > 100 µM |  | > 100 µM | 91.3 µM | > 100 µM |  | > 100 µM | > 100 µM | 78.8 µM | > 100 µM | > 100 µM | 84 µM
CC1(C)OC2C(O)C(CO)OC2(C(F)F)O1 (stereo not given) | > 100 µM | > 100 µM | > 100 µM | > 100 µM | > 100 µM | > 100 µM | > 100 µM | > 100 µM | > 100 µM | > 100 µM | > 100 µM | > 100 µM | > 100 µM | > 100 µM | > 100 µM | > 100 µM | > 100 µM | > 100 µM | > 100 µM | 
CCOC(=O)/C=C(/C(=O)OCC)n1cnc2c(=O)[nH]c(NC(C)=O)nc21 | > 100 µM | > 100 µM | > 100 µM | > 100 µM | > 100 µM | > 100 µM | > 100 µM | > 100 µM | > 100 µM | > 100 µM | > 100 µM | > 100 µM | > 100 µM | > 100 µM | > 100 µM | > 100 µM | > 100 µM | > 100 µM | > 100 µM | 
COC1(OC)CCCc2c1no[n+]2[O-] | > 100 µM | > 100 µM | > 100 µM | > 100 µM | > 100 µM | > 100 µM | > 100 µM | > 100 µM | > 100 µM | > 100 µM | > 100 µM | > 100 µM | > 100 µM | > 100 µM | > 100 µM | > 100 µM | > 100 µM | > 100 µM | > 100 µM | 
COC(=O)/C=C\C(C#N)(C#N)N=Cc1cc(Br)cs1 | 3.78 µM | 19.1 µM | 30.8 µM | 6.37 µM | 33 µM | 45.1 µM | 4.86 µM | > 100 µM | 48 µM | 4.51 µM | 6.48 µM | > 100 µM | 20.8 µM | 16 µM | 31.8 µM | 18.3 µM | 33.6 µM | 32.5 µM | 8.45 µM | 
O=[N+]([O-])c1ccc(-c2cnc3ccccn23)cc1 | > 100 µM |  |  | > 100 µM | > 100 µM |  | > 100 µM | > 100 µM | > 100 µM | > 100 µM | > 100 µM | > 100 µM | > 100 µM |  | > 100 µM | > 100 µM | > 100 µM | > 100 µM |  | > 100 µM
[N-]=[N+]=NCc1nc(N)c2c3c(sc2n1)CCCC3 | 1.55 µM | 13.2 µM | 4.76 µM | 11.4 µM | 18.3 µM | 14.9 µM | 3.15 µM | > 40.6 µM | 2.86 µM | 2.13 µM | 17.7 µM | > 100 µM | 10.1 µM | 6.72 µM | 27.9 µM | 3.41 µM | 24.1 µM | 21.4 µM | 26.5 µM | 
CC1=C(/C=C/C(C)=C/C=C/C(C)=C/C(=O)OC2CC(n3cc(F)c(=O)[nH]c3=O)OC2CO)C(C)(C)CCC1 (stereo not given) | 16.7 µM | 13.4 µM | 26.8 µM | 27.6 µM | 13.7 µM | > 56 µM | 21.5 µM | 14 µM | 31.4 µM | 20.6 µM | 17.4 µM | 20.2 µM | 36.8 µM | 20.8 µM | 14.3 µM | 13.9 µM | 19.7 µM | 23.6 µM | 25.8 µM | 
Cn1c2c(c3ccccc31)CCN1C(=O)CN(C(=O)C3CCCCC3)CC21 (stereo not given) | > 100 µM | > 100 µM | > 100 µM | > 100 µM | > 100 µM | > 100 µM | > 100 µM | > 100 µM | > 100 µM | > 100 µM | > 100 µM | > 100 µM | > 100 µM | > 100 µM | > 100 µM | > 100 µM | > 100 µM | > 100 µM | > 100 µM | 
O=C(NNC(=O)c1ccccc1O)c1cccc(Br)c1 | > 100 µM | > 100 µM | > 100 µM | > 100 µM | > 100 µM | > 100 µM | > 100 µM | > 100 µM | > 100 µM | > 100 µM | > 100 µM | > 81 µM | > 100 µM | > 100 µM | > 100 µM | > 100 µM | > 100 µM | > 100 µM | > 100 µM | 
O=C1C=C(NCCOCCO)C(=O)c2c(O)ccc(O)c21 | > 100 µM | > 100 µM | 43.6 µM | 57.1 µM | > 100 µM | > 100 µM | 42.2 µM | 87.4 µM | > 100 µM | 30 µM | 66.9 µM | 79.7 µM | > 100 µM | > 100 µM | > 100 µM | 25.9 µM | > 100 µM | > 100 µM | > 100 µM | 
NCC(=O)Nc1ccc(S(=O)(=O)O)c2cc(S(=O)(=O)O)cc(S(=O)(=O)O)c12 | > 100 µM | > 100 µM | > 100 µM | > 100 µM | > 100 µM | > 100 µM | > 100 µM | > 100 µM | > 100 µM | > 100 µM | > 100 µM | > 100 µM | > 100 µM | > 100 µM | > 100 µM | > 100 µM | > 100 µM | > 100 µM | > 100 µM | 
